Results reported in US20250170099A1, “TREATMENT OF POSTNATAL DEPRESSION” (GH RESEARCH IRELAND LIMITED, priority 2022, published 2025).

Tested on: patients with postpartum depression (PPD)
Test: Open-label clinical trial of inhaled 5-MeO-DMT in postpartum depression (one patient, IDR 6 mg then 12 mg)
Protocol: The single-arm, open-label clinical trial will involve 15 adult female patients with clinically diagnosed postpartum depression (PPD).
The second dose (12 mg) will only be administered if: • a. […] The 6 mg dose was safe and well-tolerated according to the investigator, • c. Any psychoactive effects (PsE) of the prior dose have subsided, and • d. Pre-dose vital parameters and forced expiratory volume in one second (FEV1) are in normal range, or if outside of the normal range, are not clinically significant according to the investigator. • 3. Similarly, a third dose (18 mg) will only be administered if: • a. […] The 12 mg dose was safe and well-tolerated according to the investigator, and • c. Any PsE of the prior dose have subsided, and • d. Pre-dose vital parameters and forced expiratory volume in one second (FEV1) are in normal range, or if outside of the normal range, are not clinically significant according to the investigator.
The patients will be assessed for a peak psychedelic experience (based on a patient-scored visual analogue scale, the PE scale), sedation, and other endpoints after dosing. Follow-up visits are planned for Day 1, and Day 7 after the dosing day.

Structure (SMILES): COc1ccc2[nH]cc(CCN(C)C)c2c1 [5-MeO-DMT]
- MADRS apparent sadness improvement (2 hr): 5
- MADRS apparent sadness score (2 hr): 0
- MADRS concentration difficulties improvement (2 hr): 0
- MADRS concentration difficulties score (2 hr): 0
- MADRS inability to feel improvement (2 hr): 3
- MADRS inability to feel score (2 hr): 0
- MADRS inner tension improvement (2 hr): 5
- MADRS inner tension score (2 hr): 0
- MADRS lassitude improvement (2 hr): 3
- MADRS lassitude score (2 hr): 0
- MADRS pessimistic thoughts improvement (2 hr): 4
- MADRS pessimistic thoughts score (2 hr): 0
- MADRS reduced appetite improvement (2 hr): 0
- MADRS reduced appetite score (2 hr): 0
- MADRS reduced sleep improvement (2 hr): 0
- MADRS reduced sleep score (2 hr): 5
- MADRS reported sadness improvement (2 hr): 4
- MADRS reported sadness score (2 hr): 0
- MADRS suicidal thoughts improvement (2 hr): 0
- MADRS suicidal thoughts score (2 hr): 0
- adverse events (abdominal pain, headache) (Day 0): mild, short-lasting and resolved spontaneously
- BPRS anxiety improvement (Day 1): 6
- BPRS anxiety score (Day 1): 1
- BPRS blunted affect improvement (Day 1): 0
- BPRS blunted affect score (Day 1): 1
- BPRS conceptual disorganization improvement (Day 1): 0
- BPRS conceptual disorganization score (Day 1): 1
- BPRS depressive mood improvement (Day 1): 5
- BPRS depressive mood score (Day 1): 1
- BPRS disorientation improvement (Day 1): 0
- BPRS disorientation score (Day 1): 1
- BPRS emotional withdrawal improvement (Day 1): 4
- BPRS emotional withdrawal score (Day 1): 1
- BPRS excitement improvement (Day 1): 1
- BPRS excitement score (Day 1): 1
- BPRS grandiosity improvement (Day 1): 0
- BPRS grandiosity score (Day 1): 1
- BPRS guilt feelings improvement (Day 1): 5
- BPRS guilt feelings score (Day 1): 1
- BPRS hallucinatory behaviour improvement (Day 1): 0
- BPRS hallucinatory behaviour score (Day 1): 1
- BPRS hostility improvement (Day 1): 0
- BPRS hostility score (Day 1): 1
- BPRS mannerisms and posturing improvement (Day 1): 0
- BPRS mannerisms and posturing score (Day 1): 1
- BPRS motor retardation improvement (Day 1): 0
- BPRS motor retardation score (Day 1): 1
- BPRS somatic concern improvement (Day 1): 5
- BPRS somatic concern score (Day 1): 1
- BPRS suspiciousness improvement (Day 1): 0
- BPRS suspiciousness score (Day 1): 1
- BPRS tension score (Day 1): 1
- BPRS uncooperativeness improvement (Day 1): 0
- BPRS uncooperativeness score (Day 1): 1
- BPRS unusual thought content improvement (Day 1): 0
- BPRS unusual thought content score (Day 1): 1
- MADRS apparent sadness improvement (Day 1): 5
- MADRS apparent sadness score (Day 1): 0
- MADRS concentration difficulties improvement (Day 1): 0
- MADRS concentration difficulties score (Day 1): 0
- MADRS inability to feel improvement (Day 1): 3
- MADRS inability to feel score (Day 1): 0
- MADRS inner tension improvement (Day 1): 5
- MADRS inner tension score (Day 1): 0
- MADRS lassitude improvement (Day 1): 3
- MADRS lassitude score (Day 1): 0
- MADRS pessimistic thoughts improvement (Day 1): 4
- MADRS pessimistic thoughts score (Day 1): 0
- MADRS reduced appetite improvement (Day 1): 0
- MADRS reduced appetite score (Day 1): 0
- MADRS reduced sleep improvement (Day 1): 5
- MADRS reduced sleep score (Day 1): 0
- MADRS reported sadness improvement (Day 1): 4
- MADRS reported sadness score (Day 1): 0
- MADRS suicidal thoughts improvement (Day 1): 0
- MADRS suicidal thoughts score (Day 1): 0
- BIMF functional domain Adjustment score (Day 7): 6
- BIMF functional domain Infant Care score (Day 7): 12
- BIMF functional domain Management score (Day 7): 33
- BIMF functional domain Mother-Child Interaction score (Day 7): 17
- BIMF functional domain Psychological Well-being score (Day 7): 53
- BIMF functional domain Self-Care score (Day 7): 13
- BIMF functional domain Social Support score (Day 7): 18
- BIMF item 1 score (I am a good mother) (Day 7): 6
- BIMF item 2 score (I feel rested) (Day 7): 2
- BIMF item 3 score (I am comfortable with the way I've chosen to feed my baby) (Day 7): 6
- BIMF item 4 score (My baby and I understand each other) (Day 7): 5
- BIMF item 5 score (I am able to relax and enjoy time with my baby) (Day 7): 6
- BIMF item 6 score (There are people in my life that I can trust to care for my baby) (Day 7): 6
- BIMF item 8 score (I am getting enough adult interaction) (Day 7): 6
- BIMF item 9 score (I am getting enough encouragement from other people) (Day 7): 6
- BIMF item 10 score (I trust my own feelings (instincts)) (Day 7): 6
- BIMF item 11 score (I take a little time each week to do something for myself) (Day 7): 6
- BIMF item 12 score (I am taking good care of my baby's physical needs) (Day 7): 6
- BIMF item 13 score (I am taking good care of my physical needs) (Day 7): 5
- BIMF item 14 score (I make good descisions about my baby's health and well being) (Day 7): 6
- BIMF item 15 score (My baby and I are getting into a routine) (Day 7): 6
- BIMF item 16 score (I worry about how other people judge me) (Day 7): 5
- BIMF item 17 score (I am able to take care of my baby and my other responsibilites) (Day 7): 5
- BIMF item 18 score (Anxiety or worry often interferes with my mothering ability) (Day 7): 1
- BIMF item 19 score (As time goes on, I am getting better at taking care of my baby) (Day 7): 1
- BIMF item 20 score (I am satisfied with the job I am doing as a new mother) (Day 7): 5
- BPRS anxiety improvement (Day 7): 6
- BPRS anxiety score (Day 7): 1
- BPRS blunted affect improvement (Day 7): 0
- BPRS blunted affect score (Day 7): 1
- BPRS conceptual disorganization improvement (Day 7): 0
- BPRS conceptual disorganization score (Day 7): 1
- BPRS depressive mood improvement (Day 7): 5
- BPRS depressive mood score (Day 7): 1
- BPRS disorientation improvement (Day 7): 0
- BPRS disorientation score (Day 7): 1
- BPRS emotional withdrawal improvement (Day 7): 4
- BPRS emotional withdrawal score (Day 7): 1
- BPRS excitement improvement (Day 7): 1
- BPRS excitement score (Day 7): 1
- BPRS grandiosity improvement (Day 7): 0
- BPRS grandiosity score (Day 7): 1
- BPRS guilt feelings improvement (Day 7): 5
- BPRS guilt feelings score (Day 7): 1
- BPRS hallucinatory behaviour improvement (Day 7): 0
- BPRS hallucinatory behaviour score (Day 7): 1
- BPRS hostility improvement (Day 7): 0
- BPRS hostility score (Day 7): 1
- BPRS mannerisms and posturing improvement (Day 7): 0
- BPRS mannerisms and posturing score (Day 7): 1
- BPRS motor retardation improvement (Day 7): 0
- BPRS motor retardation score (Day 7): 1
- BPRS somatic concern improvement (Day 7): 5
- BPRS somatic concern score (Day 7): 1
- BPRS suspiciousness improvement (Day 7): 0
- BPRS suspiciousness score (Day 7): 1
- BPRS tension improvement (Day 7): 5
- BPRS tension score (Day 7): 1
- BPRS uncooperativeness improvement (Day 7): 0
- BPRS uncooperativeness score (Day 7): 1
- BPRS unusual thought content improvement (Day 7): 0
- BPRS unusual thought content score (Day 7): 1
- MADRS apparent sadness improvement (Day 7): 5
- MADRS apparent sadness score (Day 7): 0
- MADRS concentration difficulties improvement (Day 7): 0
- MADRS concentration difficulties score (Day 7): 0
- MADRS inability to feel improvement (Day 7): 3
- MADRS inability to feel score (Day 7): 0
- MADRS inner tension improvement (Day 7): 4
- MADRS inner tension score (Day 7): 1
- MADRS lassitude improvement (Day 7): 3
- MADRS lassitude score (Day 7): 0
- MADRS pessimistic thoughts improvement (Day 7): 4
- MADRS pessimistic thoughts score (Day 7): 0
- MADRS reduced appetite improvement (Day 7): 0
- MADRS reduced appetite score (Day 7): 0
- MADRS reduced sleep improvement (Day 7): 5
- MADRS reduced sleep score (Day 7): 0
- MADRS reported sadness improvement (Day 7): 4
- MADRS reported sadness score (Day 7): 0
- MADRS suicidal thoughts improvement (Day 7): 0
- MADRS suicidal thoughts score (Day 7): 0
- BIMF Adjustment % improvement (Day 7 vs Day 0): 20.00%
- BIMF Adjustment Δ (Day 7 vs Day 0): 1
- BIMF Infant Care % improvement (Day 7 vs Day 0): 0.00%
- BIMF Infant Care Δ (Day 7 vs Day 0): 0
- BIMF Management % improvement (Day 7 vs Day 0): 18%
- BIMF Management Δ (Day 7 vs Day 0): 5
- BIMF Mother-Child Interaction Δ (Day 7 vs Day 0): 2
- BIMF Psychological Well-being Δ (Day 7 vs Day 0): 9
- BIMF Self-Care % improvement (Day 7 vs Day 0): 44%
- BIMF Self-Care Δ (Day 7 vs Day 0): 4
- BIMF Social Support Δ (Day 7 vs Day 0): 1
- BIMF item 1 Δ (Day 7 vs Day 0): 0
- BIMF item 2 Δ (Day 7 vs Day 0): 2
- BIMF item 3 Δ (Day 7 vs Day 0): 0
- BIMF item 4 Δ (Day 7 vs Day 0): 0
- BIMF item 5 Δ (Day 7 vs Day 0): 1
- BIMF item 6 Δ (Day 7 vs Day 0): 0
- BIMF item 7 Δ (Day 7 vs Day 0): 0
- BIMF item 8 Δ (Day 7 vs Day 0): 0
- BIMF item 9 Δ (Day 7 vs Day 0): 1
- BIMF item 10 Δ (Day 7 vs Day 0): 1
- BIMF item 11 Δ (Day 7 vs Day 0): 1
- BIMF item 12 Δ (Day 7 vs Day 0): 0
- BIMF item 13 Δ (Day 7 vs Day 0): 1
- BIMF item 14 Δ (Day 7 vs Day 0): 0
- BIMF item 15 Δ (Day 7 vs Day 0): 1
- BIMF item 16 Δ (Day 7 vs Day 0): 2
- BIMF item 17 Δ (Day 7 vs Day 0): 0
- BIMF item 18 Δ (Day 7 vs Day 0): 1
- BIMF item 19 Δ (Day 7 vs Day 0): 1
- BIMF item 20 Δ (Day 7 vs Day 0): −1
- BIMF total score Δ (Day 7 vs Day 0): 13
- time to clinical remission (after administration): ≤ 2 h
- time to clinical response (after administration): ≤ 2 h
- BPRS anxiety improvement (discharge): 6
- BPRS anxiety score (discharge): 1
- BPRS blunted affect improvement (discharge): 0
- BPRS blunted affect score (discharge): 1
- BPRS conceptual disorganization improvement (discharge): 0
- BPRS conceptual disorganization score (discharge): 1
- BPRS depressive mood improvement (discharge): 5
- BPRS depressive mood score (discharge): 1
- BPRS disorientation improvement (discharge): 0
- BPRS disorientation score (discharge): 1
- BPRS emotional withdrawal improvement (discharge): 4
- BPRS emotional withdrawal score (discharge): 1
- BPRS excitement improvement (discharge): 1
- BPRS excitement score (discharge): 1
- BPRS grandiosity improvement (discharge): 0
- BPRS grandiosity score (discharge): 1
- BPRS guilt feelings improvement (discharge): 5
- BPRS guilt feelings score (discharge): 1
- BPRS hallucinatory behaviour improvement (discharge): 0
- BPRS hallucinatory behaviour score (discharge): 1
- BPRS hostility improvement (discharge): 0
- BPRS hostility score (discharge): 1
- BPRS mannerisms and posturing improvement (discharge): 0
- BPRS mannerisms and posturing score (discharge): 1
- BPRS motor retardation improvement (discharge): 0
- BPRS motor retardation score (discharge): 1
- BPRS somatic concern improvement (discharge): 5
- BPRS somatic concern score (discharge): 1
- BPRS suspiciousness improvement (discharge): 0
- BPRS suspiciousness score (discharge): 1
- BPRS tension score (discharge): 1
- BPRS uncooperativeness improvement (discharge): 0
- BPRS uncooperativeness score (discharge): 1
- BPRS unusual thought content improvement (discharge): 0
- BPRS unusual thought content score (discharge): 1
- vital parameters (shortly after administration): temporary, clinically non-relevant increase in heart rate and blood pressure
